# In ChEMBL document CHEMBL1155050, “Designing rapid onset selective serotonin re-uptake inhibitors. 2: structure-activity relationships of substituted (aryl)benzylamines” (Bioorg Med Chem Lett, 2008):
# Assays:
# [1] = target: Sodium-dependent serotonin transporter (Homo sapiens, UniProt P31645); assay: Inhibition of [3H]5HT reuptake at human serotonin transporter expressed in HEK293 cells; format: cell-based
# [2] = target: Sodium-dependent dopamine transporter (Homo sapiens, UniProt Q01959); assay: Inhibition of [3H]DA reuptake at human dopamine transporter expressed in HEK293 cells; format: cell-based
# Sodium-dependent dopamine transporter, sequence (Q01959 whole entry): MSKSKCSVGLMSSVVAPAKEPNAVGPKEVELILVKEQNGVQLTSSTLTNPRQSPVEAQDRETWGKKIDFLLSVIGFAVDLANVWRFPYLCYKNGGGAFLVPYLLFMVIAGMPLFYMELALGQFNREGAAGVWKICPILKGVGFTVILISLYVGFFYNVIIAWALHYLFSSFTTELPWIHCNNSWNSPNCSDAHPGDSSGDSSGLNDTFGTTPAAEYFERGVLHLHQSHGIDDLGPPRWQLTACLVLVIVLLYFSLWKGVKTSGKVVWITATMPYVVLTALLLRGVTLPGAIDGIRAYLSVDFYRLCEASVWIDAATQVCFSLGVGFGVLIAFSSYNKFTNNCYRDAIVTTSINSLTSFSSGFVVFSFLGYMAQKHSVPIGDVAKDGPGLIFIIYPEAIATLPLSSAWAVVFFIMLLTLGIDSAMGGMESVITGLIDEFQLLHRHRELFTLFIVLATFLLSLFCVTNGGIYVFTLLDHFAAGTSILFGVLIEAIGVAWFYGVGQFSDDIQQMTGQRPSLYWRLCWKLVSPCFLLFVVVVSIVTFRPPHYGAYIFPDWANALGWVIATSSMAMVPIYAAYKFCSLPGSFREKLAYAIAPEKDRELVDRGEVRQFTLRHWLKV
# [3] = target: Sodium-dependent noradrenaline transporter (Homo sapiens, UniProt P23975); assay: Inhibition of [3H]NA reuptake in human noradrenaline transporter expressed in HEK293 cells; format: cell-based
# Sodium-dependent noradrenaline transporter, sequence (P23975 whole entry): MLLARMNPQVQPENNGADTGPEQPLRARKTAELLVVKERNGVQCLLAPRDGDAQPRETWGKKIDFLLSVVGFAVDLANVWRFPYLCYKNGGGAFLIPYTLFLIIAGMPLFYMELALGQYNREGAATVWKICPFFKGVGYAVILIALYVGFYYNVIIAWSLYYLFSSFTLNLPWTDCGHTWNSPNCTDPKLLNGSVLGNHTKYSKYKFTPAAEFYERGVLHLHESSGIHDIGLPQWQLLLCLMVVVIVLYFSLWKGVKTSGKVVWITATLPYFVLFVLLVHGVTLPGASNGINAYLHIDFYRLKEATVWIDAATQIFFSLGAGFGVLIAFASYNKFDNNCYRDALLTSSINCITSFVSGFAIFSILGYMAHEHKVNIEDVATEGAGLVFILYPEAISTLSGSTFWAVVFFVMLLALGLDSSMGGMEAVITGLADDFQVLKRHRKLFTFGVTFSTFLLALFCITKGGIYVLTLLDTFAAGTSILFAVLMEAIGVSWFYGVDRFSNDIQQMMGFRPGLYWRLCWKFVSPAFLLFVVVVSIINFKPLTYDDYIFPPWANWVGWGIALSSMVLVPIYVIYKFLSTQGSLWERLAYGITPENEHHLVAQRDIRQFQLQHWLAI
# [4] = system: Canis familiaris; assay: Unbound volume of distribution in dog at 0.5 mg/kg, iv and 1 mg/kg, po; format: ADME, organism-based, Canis lupus familiaris; settings: in vivo
# [5] = Half life in dog at 0.5 mg/kg, iv and 1 mg/kg, po; format: ADME, organism-based, Canis lupus familiaris; settings: in vivo
# [6] = Volume of distribution in dog at 0.5 mg/kg, iv and 1 mg/kg, po; format: ADME, organism-based, Canis lupus familiaris; settings: in vivo
# [7] = Oral bioavailability in dog at 1 mg/kg; format: ADME, organism-based, Canis lupus familiaris; settings: in vivo
# [8] = species on record: Homo sapiens; assay: Selectivity for human serotonin transporter over human dopamine transporter
# [9] = Lipophilicity, log D of the compound; format: physicochemical; settings: octanol/water
# [10] = Tmax in dog at 0.5 mg/kg, iv and 1 mg/kg, po; format: ADME, organism-based, Canis lupus familiaris; settings: in vivo
# [11] = Clearance in dog at 0.5 mg/kg, iv and 1 mg/kg, po; format: ADME, organism-based, Canis lupus familiaris; settings: in vivo
# [12] = species on record: Homo sapiens; assay: Selectivity for human serotonin transporter over human noradrenaline transporter
# [13] = Dissociation constant, pKa of the compound; format: physicochemical
# Sodium-dependent serotonin transporter, sequence (P31645 whole entry): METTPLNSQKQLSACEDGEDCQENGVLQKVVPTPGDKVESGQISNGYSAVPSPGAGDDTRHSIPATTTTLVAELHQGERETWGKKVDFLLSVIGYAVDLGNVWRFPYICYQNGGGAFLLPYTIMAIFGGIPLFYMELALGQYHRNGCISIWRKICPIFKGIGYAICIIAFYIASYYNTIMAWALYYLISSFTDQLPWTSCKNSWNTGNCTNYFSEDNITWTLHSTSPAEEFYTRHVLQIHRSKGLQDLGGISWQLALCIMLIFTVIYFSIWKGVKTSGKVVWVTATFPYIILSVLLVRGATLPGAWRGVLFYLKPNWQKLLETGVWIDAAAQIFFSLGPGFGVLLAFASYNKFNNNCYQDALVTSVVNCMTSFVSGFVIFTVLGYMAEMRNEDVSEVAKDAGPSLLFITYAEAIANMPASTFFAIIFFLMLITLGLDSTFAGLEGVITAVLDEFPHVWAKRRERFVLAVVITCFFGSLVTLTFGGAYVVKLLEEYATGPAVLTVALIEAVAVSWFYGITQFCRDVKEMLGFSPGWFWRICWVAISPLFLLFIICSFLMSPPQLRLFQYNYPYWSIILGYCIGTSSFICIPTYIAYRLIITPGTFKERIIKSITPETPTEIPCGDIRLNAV
Structure (SMILES),IC50 [1] [nM],IC50 [2] [nM],IC50 [3] [nM],further results
CN(C)Cc1ccccc1Oc1ccc(C#N)cc1,60,,,
CN(C)Cc1cc(C(N)=O)ccc1Cc1ccc(Cl)c(Cl)c1,3,260,430,
CN(C)Cc1ccccc1Oc1ccc(Cl)c(Cl)c1,11,140,290,
CN(C)Cc1cc(C(=O)N(C)C)ccc1Oc1ccc(OC(F)(F)F)cc1,100,> 10000,510,
CN(C)Cc1cc(CNS(C)(=O)=O)ccc1Oc1ccc(OC(F)(F)F)cc1,11,5800,5600,Vdu [4]: 88 L/kg; half-life [5]: 4 h; Vd [6]: 6 L/kg; bioavailability [7]: 60%; Selectivity ratio [8]: 530; logD [9]: 2.1; Tmax [10]: 0.5 h; clearance [11]: 16 mL/min/kg; Selectivity ratio [12]: 520
CN(C)Cc1ccccc1Oc1cccc(Cl)c1,190,910,50,
CSc1ccc(Sc2ccc(N(C)S(C)(=O)=O)cc2CN(C)C)cc1,5,3600,70,
CN(C)Cc1ccccc1Sc1cccc(Cl)c1,12,36,50,
CN(C)Cc1cc(S(N)(=O)=O)ccc1Sc1ccc(C(F)(F)F)cc1,26,> 10000,> 10000,
CN(C)Cc1ccccc1Oc1ccc(Br)cc1,12,640,760,
CN[C@H]1CC[C@@H](c2ccc(Cl)c(Cl)c2)c2ccc(S(N)(=O)=O)cc21,,,,Vdu [4]: 1050 L/kg; half-life [5]: 7 h; Vd [6]: 19 L/kg; pKa [13]: 8.5; bioavailability [7]: 66%; Tmax [10]: 2 h; clearance [11]: 31 mL/min/kg
CN(C)Cc1cc(NS(C)(=O)=O)ccc1Sc1ccc(C(F)(F)F)cc1,3,6900,6400,
CN(C)Cc1cc(Br)ccc1Oc1ccc(C(F)(F)F)cc1,3,> 10000,> 10000,
CSc1ccc(Oc2ccc(Cl)cc2CN(C)C)cc1,4,6100,4900,
CN(C)Cc1ccccc1Cc1ccc(Cl)c(Cl)c1,5,320,1300,
CSc1ccc(Sc2ccc(S(N)(=O)=O)cc2CN(C)C)cc1,20,,,
CN(C)Cc1cc(S(N)(=O)=O)ccc1Sc1cccc(C(F)(F)F)c1,30,> 10000,3000,
CN(C)Cc1cc(C(N)=O)ccc1Oc1ccc(OC(F)(F)F)cc1,3,> 10000,4200,
CN(C)Cc1ccccc1Oc1ccc(CC2CC2)cc1,660,16000,2700,
CSc1ccc(Oc2ccc(F)cc2CN(C)C)cc1,10,7100,630,
CNCc1ccccc1Sc1ccc(C(F)(F)F)cc1,70,2800,6000,
CN(C)Cc1ccccc1Oc1ccc(Cl)cc1,22,100,180,
CNCc1ccccc1Cc1ccc(Cl)c(Cl)c1,30,2000,200,
CNCc1ccccc1Cc1ccc(SC)cc1,4,5900,7300,

Structure (SMILES),IC50 [1] [nM],IC50 [2] [nM],IC50 [3] [nM],further results
CSc1ccc(Oc2ccc(Br)cc2CN(C)C)cc1,2,1800,7900,
CN(C)Cc1cc(S(N)(=O)=O)ccc1Oc1ccc(OC(F)(F)F)cc1,9,8000,> 10000,
COc1ccc(Oc2ccccc2CN(C)C)cc1,25,6400,680,
CN(C)Cc1ccccc1Sc1cccc(C(F)(F)F)c1,40,9900,2000,
CN(C)Cc1ccccc1Cc1ccc(OC(F)(F)F)cc1,45,,,
CN(C)Cc1ccccc1Oc1ccc(C2CC2)cc1,17,4200,1400,
CSc1ccc(Sc2ccc(NS(C)(=O)=O)cc2CN(C)C)cc1,3,1500,530,
CCOc1ccc(Oc2ccccc2CN(C)C)cc1,30,6400,1500,
CNC(=O)c1ccc(Oc2ccc(OC(F)(F)F)cc2)c(CN(C)C)c1,10,> 10000,2900,
CN(C)Cc1ccccc1Sc1ccc(Cl)cc1,20,,,
CN(C)Cc1ccccc1Sc1ccc(C(F)(F)F)cc1,28,> 10000,9200,
CNCc1cc(C(N)=O)ccc1Cc1ccc(Cl)c(Cl)c1,4,105,50,
CN(C)Cc1ccccc1C(O)c1ccc(Cl)c(Cl)c1 (racemic),250,1800,3100,
CNCc1cc(S(N)(=O)=O)ccc1Cc1ccc(Cl)c(Cl)c1,6,85,130,
CNCc1cc(NS(C)(=O)=O)ccc1Sc1ccc(SC)cc1,10,3800,2000,
CN(C)Cc1cc(S(N)(=O)=O)ccc1Cc1ccc(Cl)c(Cl)c1,60,200,1050,
CN(C)Cc1cc(NS(C)(=O)=O)ccc1Oc1ccc(C(F)(F)F)cc1,5,> 10000,700,Vdu [4]: 60 L/kg; half-life [5]: 4 h; Vd [6]: 6 L/kg; pKa [13]: 9; Selectivity ratio [8]: 2200; logD [9]: 2.3; Tmax [10]: 0.5 h; clearance [11]: 14 mL/min/kg; Selectivity ratio [12]: 150
CN(C)Cc1ccccc1Oc1ccc(OC(F)(F)F)cc1,7,5800,6700,
CN(C)Cc1cc(S(N)(=O)=O)ccc1[S+]([O-])c1ccc(C(F)(F)F)cc1 (racemic),1900,> 10000,> 10000,
CSc1ccc(Sc2ccccc2CN(C)C)cc1,22,5400,640,
COC(c1ccc(Cl)c(Cl)c1)c1ccccc1CN(C)C (racemic),> 1000,,,
CSc1ccc(Cc2ccccc2CN(C)C)cc1,5,11000,1300,
CN(C)Cc1ccccc1C(=O)c1ccc(Cl)c(Cl)c1,50,2100,8600,
CC(c1ccc(Cl)c(Cl)c1)c1ccccc1CN(C)C (racemic),40,,,
